Results taken from patent US8574563B2 (Bristol-Myers Squibb Company, priority 2006, dated 2013).

tested on: HCV 1b-377-neo replicon cells; experiment: HCV replicon assay, HCV 1b-377-neo replicon cells (1b FRET); type: cell-based, Hepatitis C virus genotype 1b; conditions: HCV 1b-377-neo replicon cells; HCV 1b genotype
Summary of the method: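 FRET-based replicon assay in HCV 1b-377-neo cells, including a comparison line carrying the NS5A Y2065H mutation that confers resistance to a reference compound.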

Compound	EC50 range against HCV 1b (Table 2, Range)
COC(=O)N[C@@H](C(=O)N1CCC[C@H]1c1ncc(-c2ccc(-c3ccc(-c4cnc([C@@H]5CCCN5C(=O)Cc5ccccc5Cl)[nH]4)cc3)cc2)[nH]1)c1ccccc1 [Example 84-66, methyl ((1R)-2-((2S)-2-(5-(4′-(2-((2S)-1-((2-chlorophenyl)acetyl)-2-pyrrolidinyl)-1H-imidazol-5-yl)-4-biphenylyl)-1H-imidazol-2-yl)-1-pyrrolidinyl)-2-oxo-1-phenylethyl)carbamate]	C-D

same assay, conditions: Hepatitis C virus, HCV 1b-377-neo replicon cells; HCV 1b genotype; read-out: EC50 range against HCV 1b (Table 2, Range)

Compound	EC50 [nM]
COC(=O)N[C@@H](C(=O)N1CCC[C@H]1c1ncc(-c2ccc(-c3ccc(-c4cnc([C@@H]5CCCN5C(=O)N(C)C)[nH]4)cc3)cc2)[nH]1)c1ccccc1 [Example 50, methyl ((1R)-2-((2S)-2-(5-(4′-(2-((2S)-1-(dimethylcarbamoyl)-2-pyrrolidinyl)-1H-imidazol-5-yl)-4-biphenylyl)-1H-imidazol-2-yl)-1-pyrrolidinyl)-2-oxo-1-phenylethyl)carbamate]	100 to 999
CN(C)[C@@H](C(=O)N1CCC[C@H]1c1ncc(-c2cnc(-c3ncc(-c4cnc([C@@H]5CCCN5C(=O)[C@@H](c5ccccc5)N(C)C)[nH]4)cn3)nc2)[nH]1)c1ccccc1 [Example 153c-3, (1R,1′R)-2,2′-(2,2′-bipyrimidine-5,5′-diylbis(1H-imidazole-5,2-diyl(2S)-2,1-pyrrolidinediyl))bis(N,N-dimethyl-2-oxo-1-phenylethanamine)]	1000 to 10000
CC(=O)CCC(=O)N1CCC[C@H]1c1ncc(-c2ccc(-c3ccc(-c4cnc([C@@H]5CCCN5C(=O)[C@@H](c5ccccc5)N5CCCCC5)[nH]4)cc3)cc2)[nH]1 [Example 107-5, 5-oxo-5-((2S)-2-(5-(4′-(2-((2S)-1-((2R)-2-phenyl-2-(1-piperidinyl)acetyl)-2-pyrrolidinyl)-1H-imidazol-5-yl)-4-biphenylyl)-1H-imidazol-2-yl)-1-pyrrolidinyl)-2-pentanone]	0.001 to 0.999
COC(=O)N[C@@H](C(=O)N1[C@H](c2ncc(-c3ccc(-c4ccc(-c5cnc([C@@H]6C[C@@H]7C[C@@H]7N6C(=O)[C@H](NC(=O)OC)C(C)C)[nH]5)cc4)cc3)[nH]2)C[C@@H]2C[C@@H]21)C(C)C [Example M123, methyl ((1R)-1-(((1S,3S,5S)-3-(5-(4′-(2-((1S,3S,5S)-2-((2R)-2-((methoxycarbonyl)amino)-3-methylbutanoyl)-2-azabicyclo[3.1.0]hex-3-yl)-1H-imidazol-5-yl)-4-biphenylyl)-1H-imidazol-2-yl)-2-azabicyclo[3.1.0]hex-2-yl)carbonyl)-2-methylpropyl)carbamate]	1000 to 10000
COC(=O)N[C@H](C(=O)N1CCC[C@H]1c1ncc(-c2ccc(-c3ccc(-c4cnc([C@@H]5CCCN5C(=O)CN(C(C)C)C(C)C)[nH]4)cc3)cc2)[nH]1)C(C)C [LS26, methyl ((1S)-1-(((2S)-2-(5-(4′-(2-((2S)-1-(N,N-diisopropylglycyl)-2-pyrrolidinyl)-1H-imidazol-5-yl)-4-biphenylyl)-1H-imidazol-2-yl)-1-pyrrolidinyl)carbonyl)-2-methylpropyl)carbamate]	0.001 to 0.999
CCCN(CCC)[C@@H](C)C(=O)N1CCC[C@H]1c1ncc(-c2ccc(-c3ccc(-c4cnc([C@@H]5CCCN5C(=O)[C@@H](c5ccccc5)N(CC)CC)[nH]4)cc3)cc2)[nH]1 [Example M43, N-((1S)-2-((2S)-2-(5-(4′-(2-((2S)-1-((2R)-2-(diethylamino)-2-phenylacetyl)-2-pyrrolidinyl)-1H-imidazol-5-yl)-4-biphenylyl)-1H-imidazol-2-yl)-1-pyrrolidinyl)-1-methyl-2-oxoethyl)-N-propyl-1-propanamine]	1 to 99
COC(=O)N[C@@H](C(=O)N1CCC[C@H]1c1ncc(-c2ccc(-c3ccc(-c4cnc([C@@H]5CCCN5C(=O)[C@@H]5CCCO5)[nH]4)cc3)cc2)[nH]1)c1ccccc1 [Example 59, methyl ((1R)-2-oxo-1-phenyl-2-((2S)-2-(5-(4′-(2-((2S)-1-((2S)-tetrahydro-2-furanylcarbonyl)-2-pyrrolidinyl)-1H-imidazol-5-yl)-4-biphenylyl)-1H-imidazol-2-yl)-1-pyrrolidinyl)ethyl)carbamate]	0.001 to 0.999
